In patent US6608174B1, “Radiolabeled vasoactive intestinal peptide analogs for diagnosis and radiotherapy” (Dabur Research Foundation, priority 2000, dated 2003):
Like-named read-outs stand apart in the source and are kept apart here. Square brackets hold non-standard residues; d marks the D form. Ends that are not written are not given here. dPhe(4-Cl) = N[C@H](Cc1ccc(Cl)cc1)C(=O)O; Aib = CC(C)(N)C(=O)O

Assays:
VIP receptors = experiment: Receptor binding and competition assay with 125I labeled peptide (SEQ ID NO:2) on human tumor cell lines; conditions: for Kd: 4-8° C.
Procedure: In the practice of these methods, the peptide was radioiodinated using the iodogen method. Briefly, 5 μg of the peptide in 10 μl of 50 mM PBS (pH 7.5), an appropriate amount of the radioisotope and 50 μg-100 μg iodogen were incubated at room temperature for 15-30 min with occasional mixing. Radioiodinated peptide was purified from unincorporated radioactive iodine by purification on a Sep Pak C18 cartridge, essentially following the same procedure as described for technetium labeling. Receptor binding and competition assays were performed at 4-8° C. Briefly, 50,000 cells were plated per well of a 24 well plate and allowed to adhere overnight. Before the assay, the cells were washed twice with ice cold binding buffer (25 mM HEPES, 10 mM MgCl2 and 1% BSA in RPMI 1640 medium). The cells were incubated for 2-3 hrs with an appropriate concentration (0.1-10 nM) of the ^125I labeled peptide (SEQ ID NO:2), in the presence and absence of the cold ligand, which is the uniodinated form of the same peptide (1 nM-10 μM). After incubation, the cells were washed thrice with the binding buffer to remove the unbound peptide. The cells were lysed and counts were measured in a Gamma counter. From a comparison of the extent of binding in the presence or absence of the unlabeled peptide (SEQ ID NO:2), the dissociation constant (Kd) (TABLE I) and maximal binding (Bmax) (TABLE II) were calculated for the peptide. […] These characteristics are similar to what has been previously reported for VIP receptors. The following tumor cell lines were assayed using the above described binding competition assay: HT29 (human colorectal adenocarcinoma); PTC (human primary tumor cells adenocarcinoma); KB (human squamous cell carcinoma); 4451 (human squamous cell carcinoma); L132 (human lung carcinoma); A549 (human lung carcinoma); HBL100 (human breast carcinoma) and PA1 (human ovarian carcinoma). Cells were grown in RPMI 1640 supplemented with 10% fetal calf serum, glutamine and antibiotics using standard cell culture techniques (see Animal Cell Culture: A Practical Approach, Freshney, ed, IRL press: Oxford, UK, 1992).

[1] = molecular target: high affinity (nM range), low surface expression receptor on human tumor cells (VIP receptor) (human); experiment: maximal binding, 125I-SEQ ID NO:2 on L132 cells
[2] = molecular target: low affinity (µM range), high surface expression receptor on human tumor cells (VIP receptor) (human); experiment: maximal binding, 125I-SEQ ID NO:2 on L132 cells
[3] = molecular target: VIP receptors on human tumor cell lines (human); experiment: displacement of 125I labeled VIP on 4451 cells
[4] = molecular target: high affinity (nM range), low surface expression receptor on human tumor cells (VIP receptor) (human); experiment: homologous radioligand competition, 125I-SEQ ID NO:2 on L132 cells
[5] = molecular target: low affinity (µM range), high surface expression receptor on human tumor cells (VIP receptor) (human); experiment: as above
[6] = molecular target: VIP receptors on human tumor cell lines (human); experiment: displacement of 125I labeled VIP on PTC cells
[7] = molecular target: high affinity (nM range), low surface expression receptor on human tumor cells (VIP receptor) (human); experiment: maximal binding, 125I-SEQ ID NO:2 on PA1 cells (printed PAI)
[8] = molecular target: low affinity (µM range), high surface expression receptor on human tumor cells (VIP receptor) (human); experiment: as above
[9] = molecular target: high affinity (nM range), low surface expression receptor on human tumor cells (VIP receptor) (human); experiment: homologous radioligand competition, 125I-SEQ ID NO:2 on A549 cells
[10] = molecular target: low affinity (µM range), high surface expression receptor on human tumor cells (VIP receptor) (human); experiment: as above
[11] = molecular target: high affinity (nM range), low surface expression receptor on human tumor cells (VIP receptor) (human); experiment: homologous radioligand competition, 125I-SEQ ID NO:2 on HT29 cells
[12] = molecular target: VIP receptors on human tumor cell lines (human); experiment: displacement of 125I labeled VIP (10-28) fragment on 4451 cells
[13] = molecular target: VIP receptors on human tumor cell lines (human); experiment: displacement of 125I labeled VIP on HT29 cells
[14] = molecular target: VIP receptors on human tumor cell lines (human); experiment: displacement of 125I labeled VIP on HBL 100 cells
[15] = molecular target: high affinity (nM range), low surface expression receptor on human tumor cells (VIP receptor) (human); experiment: homologous radioligand competition, 125I-SEQ ID NO:2 on PA1 cells
[16] = molecular target: low affinity (µM range), high surface expression receptor on human tumor cells (VIP receptor) (human); experiment: as above
[17] = molecular target: high affinity (nM range), low surface expression receptor on human tumor cells (VIP receptor) (human); experiment: maximal binding, 125I-SEQ ID NO:2 on KB cells
[18] = molecular target: low affinity (µM range), high surface expression receptor on human tumor cells (VIP receptor) (human); experiment: maximal binding, 125I-SEQ ID NO:2 on KB cells
[19] = molecular target: high affinity (nM range), low surface expression receptor on human tumor cells (VIP receptor) (human); experiment: homologous radioligand competition, 125I-SEQ ID NO:2 on PTC cells
[20] = molecular target: low affinity (µM range), high surface expression receptor on human tumor cells (VIP receptor) (human); experiment: as above

Molecule: His-Ser-Asp-Aib-Val-4-Cl-D-Phe-Thr-Asp-Asn-Tyr-Thr-Arg-Leu-Arg-Lys-Gln-Leu-Ala-Val-Lys-Lys-Tyr-Leu-Asn-Ser-Ile-Leu-Asn-NH2 (HSD[Aib]V[dPhe(4-Cl)]TDNYTRLRKQLAVKKYLNSILN-NH2; N-terminus assumed; SMILES CC[C@H](C)[C@H](NC(=O)[C@H](CO)NC(=O)[C@H](CC(N)=O)NC(=O)[C@H](CC(C)C)NC(=O)[C@H](Cc1ccc(O)cc1)NC(=O)[C@H](CCCCN)NC(=O)[C@H](CCCCN)NC(=O)[C@@H](NC(=O)[C@H](C)NC(=O)[C@H](CC(C)C)NC(=O)[C@H](CCC(N)=O)NC(=O)[C@H](CCCCN)NC(=O)[C@H](CCCNC(=N)N)NC(=O)[C@H](CC(C)C)NC(=O)[C@H](CCCNC(=N)N)NC(=O)[C@@H](NC(=O)[C@H](Cc1ccc(O)cc1)NC(=O)[C@H](CC(N)=O)NC(=O)[C@H](CC(=O)O)NC(=O)[C@@H](NC(=O)[C@@H](Cc1ccc(Cl)cc1)NC(=O)[C@@H](NC(=O)C(C)(C)NC(=O)[C@H](CC(=O)O)NC(=O)[C@H](CO)NC(=O)[C@@H](N)Cc1c[nH]cn1)C(C)C)[C@@H](C)O)[C@@H](C)O)C(C)C)C(=O)N[C@@H](CC(C)C)C(=O)N[C@@H](CC(N)=O)C(N)=O) [SEQ ID NO:2, VIP receptor antagonist, preferred peptide (Xxx = Aib)]
- Bmax1 (maximal binding) (VIP receptors; 4451 cells, high affinity receptor): 579 pM
- Kd (VIP receptors; 4451 cells, high affinity receptor, read-out: Kd1): 4.48 nM
- Bmax2 (maximal binding) (VIP receptors; 4451 cells, low affinity receptor): 51 nM
- Kd (VIP receptors; 4451 cells, low affinity receptor, read-out: Kd2): 1910 nM
- Bmax1 (maximal binding) (VIP receptors; A549 cells, high affinity receptor): 540 pM
- Kd (VIP receptors; A549 cells, high affinity receptor, read-out: Kd1): 2.09 nM
- Bmax2 (maximal binding) (VIP receptors; A549 cells, low affinity receptor): 48.3 nM
- Kd (VIP receptors; A549 cells, low affinity receptor, read-out: Kd2): 1530 nM
- Bmax1 (maximal binding) (VIP receptors; HBL 100 cells, high affinity receptor): 697 pM
- Kd (VIP receptors; HBL 100 cells, high affinity receptor, read-out: Kd1): 2.13 nM
- Bmax2 (maximal binding) (VIP receptors; HBL 100 cells, low affinity receptor): 69.1 nM
- Kd (VIP receptors; HBL 100 cells, low affinity receptor, read-out: Kd2): 1600 nM
- Bmax1 (maximal binding) (VIP receptors; HT29 cells, high affinity receptor): 367 pM
- Kd (VIP receptors; HT29 cells, high affinity receptor, read-out: Kd1): 3.8 nM
- Bmax2 (maximal binding) (VIP receptors; HT29 cells, low affinity receptor): 67.2 nM
- Kd (VIP receptors; HT29 cells, low affinity receptor, read-out: Kd2): 1370 nM
- Bmax1 (maximal binding) (VIP receptors; KB cells, high affinity receptor): 602 pM
- Kd (VIP receptors; KB cells, high affinity receptor, read-out: Kd1): 4.2 nM
- Bmax2 (maximal binding) (VIP receptors; KB cells, low affinity receptor): 42.9 nM
- Kd (VIP receptors; KB cells, low affinity receptor, read-out: Kd2): 1840 nM
- Bmax1 (maximal binding) (VIP receptors; L132 cells, high affinity receptor): 306 pM
- Kd (VIP receptors; L132 cells, high affinity receptor, read-out: Kd1): 2.6 nM
- Bmax2 (maximal binding) (VIP receptors; L132 cells, low affinity receptor): 45.8 nM
- Kd (VIP receptors; L132 cells, low affinity receptor, read-out: Kd2): 1030 nM
- Kd (VIP receptors; PA1 cells, high affinity receptor, read-out: Kd1): 5.6 nM
- Kd (VIP receptors; PA1 cells, low affinity receptor, read-out: Kd2): 1890 nM
- Bmax1 (maximal binding) (VIP receptors; PAI cells, high affinity receptor): 529 pM
- Bmax2 (maximal binding) (VIP receptors; PAI cells, low affinity receptor): 47.7 nM
- Bmax1 (maximal binding) (VIP receptors; PTC cells, high affinity receptor): 830 pM
- Kd (VIP receptors; PTC cells, high affinity receptor, read-out: Kd1): 1.77 nM
- Bmax2 (maximal binding) (VIP receptors; PTC cells, low affinity receptor): 96.6 nM
- Kd (VIP receptors; PTC cells, low affinity receptor, read-out: Kd2): 1180 nM
- kinds of receptors bound on the cell surface (VIP receptors; one high affinity (nM range), low expression, one low affinity, high expression): bound to two kinds of receptors on the cell surface

B1: VIP analog His-Ser-Asp-Aib-Val-4-Cl-D-Phe-Thr-Asp-Asn-Tyr-Thr-Arg-Leu-Arg-Lys-Gln-Leu-Ala-Val-Lys-Lys-Tyr-Leu-Asn-Ser-Ile-Leu-Asn-NH2 (SEQ ID NO: 2) (peptide)
peptide: HSD[Aib]V[dPhe(4-Cl)]TDNYTRLRKQLAVKKYLNSILN-NH2
modifications: also: 125I-labelled form (iodogen) used as tracer
- Bmax1 [1]: 306 pM
- Bmax2 [2]: 45.8 nM
- IC50 [3]: 7.1 nM
- Kd [4]: 2.6 nM
- Kd [5]: 1030 nM
- IC50 [6]: 2.53 nM
- Bmax1 [7]: 529 pM
- Bmax2 [8]: 47.7 nM
- Kd [9]: 2.09 nM
- Kd [10]: 1530 nM
- Kd [11]: 3.8 nM
- IC50 [12]: 0.383 nM
- IC50 [13]: 2.78 nM
- IC50 [14]: 5.41 nM
- Kd [15]: 5.6 nM
- Kd [16]: 1890 nM
- Bmax1 [17]: 602 pM
- Bmax2 [18]: 42.9 nM
- Kd [19]: 1.77 nM
- Kd [20]: 1180 nM
